Like-named read-outs stand apart in the source and are kept apart here.
How the values were obtained:
[1] = system: U87MG tumor; test: In vivo solid tumor disease model, U87MG; parameters: species or system mice; conditions: Mus musculus, U-87 MG, po, 20 mg/kg orally daily, read-out: Tumor Growth Inhibition (%)
Text: (§1) This test measures the capacity of compounds to inhibit solid tumor growth.
(§2) Tumor xenografts are established in the flank of female athymic CD1 mice (Charles River Inc.), by subcutaneous injection of 1×106 U87, A431 or SKLMS cells/mouse. Once established, tumors are then serially passaged s.c. in nude mice hosts. Tumor fragments from these host animals are used in subsequent compound evaluation experiments. For compound evaluation experiments female nude mice weighing approximately 20 g are implanted s.c. by surgical implantation with tumor fragments of ˜30 mg from donor tumors. When the tumors are approximately 100 mm3 in size (˜7-10 days following implantation), the animals are randomized and separated into treatment and control groups. Each group contains 6-8 tumor-bearing mice, each of which is ear-tagged and followed individually throughout the experiment.
(§3) Mice are weighed and tumor measurements are taken by calipers three times weekly, starting on Day 1. These tumor measurements are converted to tumor volume by the well-known formula (L+W/4)3 4/3π. The experiment is terminated when the control tumors reach a size of approximately 1500 mm^3. In this model, the change in mean tumor volume for a compound treated group/the change in mean tumor volume of the control group (non-treated or vehicle treated)×100 (ΔT/ΔC) is subtracted from 100 to give the percent tumor growth inhibition (% TGI) for each test compound. In addition to tumor volumes, body weight of animals is monitored twice weekly for up to 3 weeks.

[2] = system: SKLMS40 tumor; test: In vivo solid tumor disease model, SKLMS40; parameters: species or system mice; conditions: Mus musculus, po, SKLMS40, 20 mg/kg orally daily, read-out: Tumor Growth Inhibition (%)
Text: as §1, §2, §3

[3] = system: CNV progression; test: In vivo choroidal neovascularization (CNV) model, laser-induced; conditions: Brown-Norway rats, intravitreal injection 30 and/or 100 nmol/eye on Day 1 and/or Day 3 and/or Day 7, CNV area on Day 10
Text: This test measures the capacity of compounds to inhibit CNV progression. CNV is the main cause of severe vision loss in patients suffering from age-related macular degeneration (AMD).
Male Brown-Norway rats (Japan Clea Co., Ltd.) were used in these studies.
Rats were anesthetized by intraperitoneal injection of pentobarbital, and the right pupil was dilated with 0.5% tropicamide and 0.5% phenylephrine hydrochloride. The right eye received 6 laser burns between retinal vessels using a slit lamp delivery system of Green laser Photocoagulator (Nidex Inc., Japan), and microscope slide glass with Heaton™ (AMO Inc) used as a contact lens. The laser power was 100 or 200 mW for 0.1 second and spot diameter was 100 μm. At the time of laser burn, bubble production was observed, which is an indication of rupture of Bruch's membrane which is important for CNV generation.
Rats were divided into the groups based on their body weight using SAS software (SAS institute Japan, R8.1) after laser irradiation (Day 0). After animals were anesthetized, and the right pupil dilated (as above mentioned), the right eye of the animal received the compound or vehicle by intravitreal injection (5 or 10 μL/eye) at doses of 30 and/or 100 nmol/eyeon Day 1 and/or Day 3 and/or Day 7. The compounds were dissolved or suspended in CBS, PBS, or other adequate vehicles before injection.
On Day 10, the animals were anesthetized with ether, and high molecular weight fluorescein isothiocyanate (FITC)-dextran (SIGMA, 2×10^6 MW) was injected via a tail vein (20 mg/rat). About 30 min after FITC-dextran injection, animals were euthanized by ether or carbon dioxide, and the eyes were removed and fixed with 10% formaline neutral buffer solution. After over 1 hour of fixation, RPE-choroid-sclera flat mounts were obtained by removing cornea, lens and retina from the eyeballs. The flat mounts were mounted in 50% glycerol on a microscope slide, and the portion burned by laser was photographed using a fluorescence microscope (Nikon Corporation, excitation filter:465-495 nm, absorption filter:515-555 nm). The CNV area was obtained by measurement of hyper-fluorescence area observed on the photograph using Scion image.
The average CNV area of 6 burns was used as an individual value of CNV area, and the average CNV area of compound treated group was compared with that of the vehicle-treated group. […]

[4] = system: MKN45 tumor; test: In vivo solid tumor disease model, MKN45; parameters: species or system mice; conditions: Mus musculus, MKN-45, po, 312 h; MKN45, 20 mg/kg orally daily, 13 days; read-out: Tumor Growth Inhibition (%)
[5] = system: A549 tumor; test: In vivo solid tumor disease model, A549; parameters: species or system mice; conditions: A549, 20 mg/kg orally daily, 12 days

Row | SMILES | % Inhibition of CNV Progression [3] | also measured
1 | COCCNCc1cccc(-c2cc3nccc(Oc4ccc(NC(=O)C5(C(=O)Nc6ccc(F)cc6)CC5)cc4F)c3s2)n1 |  | inhibition in vivo at 20 mg/kg ([1]; 312 h, 13 days): ≥ 75%
2 | COCCNCc1ccc(-c2cc3nccc(Oc4ccc(NC(=S)NC(=O)Cc5ccc(F)cc5)c(OC)c4)c3s2)nc1 |  | inhibition in vivo at 20 mg/kg ([2]; 360 h, 15 days): 25 to 50%
3 | COCCNCc1ccc(-c2cc3nccc(Oc4ccc(NC(=O)Nc5cc(C)on5)c(OC)c4)c3s2)nc1 |  | inhibition in vivo at 20 mg/kg ([2]; 360 h, 15 days): ≥ 75%
4 | COCCNCc1ccc(-c2cc3nccc(Oc4ccc(NC(=O)C5(C(=O)Nc6ccc(F)cc6)CC5)c(OC)c4)c3s2)nc1 |  | inhibition in vivo at 20 mg/kg ([2]; 360 h, 15 days): 25 to 50%
5 | COCCNCc1cnc(-c2cc3nccc(Oc4ccc(NC(=O)CC(=O)Nc5ccccc5)cc4F)c3s2)n1C [13(49), N^1-(3-Fluoro-4-(2-(5-((2-methoxyethylamino)methyl)-1-methyl-1H-imidazol-2-yl)thieno[3,2-b]pyridin-7-yloxy)phenyl)-N^3-phenylmalonamide] | A (greater than or equal to 30% inhibition) | 
6 | COCCNCc1cnc(-c2cc3nccc(Oc4ccc(NC(=O)CC(=O)N(C)c5ccccc5)cc4F)c3s2)n1C [14(50), N^1-(3-Fluoro-4-(2-(5-((2-methoxyethylamino)methyl)-1-methyl-1H-imidazol-2-yl)thieno[3,2-b]pyridin-7-yloxy)phenyl)-N3-methyl-N^3-phenylmalonamide] | B (≧10% to <30% inhibition) | 
7 | CN(C(=O)CC(=O)Nc1ccc(Oc2ccnc3cc(-c4ccc(CNCCS(C)(=O)=O)cc4)sc23)c(F)c1)c1ccccc1 [80(187), N1-(3-fluoro-4-(2-(4-((2-(methylsulfonyl)ethylamino)methyl)phenyl)thieno[3,2-b]pyridin-7-yloxy)phenyl)-N3-methyl-N3-phenylmalonamide] | A (greater than or equal to 30% inhibition) | 
8 | COCCNCc1ccc(-c2cc3nccc(Oc4ccc(NC(=O)CC(=O)N(C)c5ccccc5)cc4F)c3s2)nc1 [116(223), N1-(3-fluoro-4-(2-(5-((2-methoxyethylamino)methyl)pyridin-2-yl)thieno[3,2-b]pyridin-7-yloxy)phenyl)-N3-methyl-N3-phenylmalonamide] | B (≧10% to <30% inhibition) | 
9 | COCCNCc1ccc(-c2cc3nccc(Oc4ccc(NC(=O)Nc5cc(C(C)(C)C)on5)cc4F)c3s2)nc1 [145(252), 1-(5-tert-butylisoxazol-3-yl)-3-(3-fluoro-4-(2-(5-((2-methoxyethylamino)methyl)pyridin-2-yl)thieno[3,2-b]pyridin-7-yloxy)phenyl)urea] | B (≧10% to <30% inhibition) | 
10 | COCCNCc1ccc(-c2cc3nccc(Oc4ccc(NC(=O)Nc5cc(C(F)(F)F)ccc5F)cc4F)c3s2)nc1 [146(253), 1-(3-fluoro-4-(2-(5-((2-methoxyethylamino)methyl)pyridin-2-yl)thieno[3,2-b]pyridin-7-yloxy)phenyl)-3-(2-fluoro-5-(trifluoromethyl)phenyl)urea] | A (greater than or equal to 30% inhibition) | 
11 | COCCNCc1ccc(-c2cc3nccc(Oc4ccc(NC(=O)Nc5cccc(C)c5)cc4F)c3s2)nc1 [161(268), 1-(3-fluoro-4-(2-(5-((2-methoxyethylamino)methyl)pyridin-2-yl)thieno[3,2-b]pyridin-7-yloxy)phenyl)-3-m-tolylurea] | B (≧10% to <30% inhibition) | 
12 | COCCNCc1cccc(-c2cc3nccc(Oc4ccc(NC(=O)Nc5cc(C)on5)cc4F)c3s2)n1 [162(269), 1-(3-fluoro-4-(2-(6-((2-methoxyethylamino)methyl)pyridin-2-yl)thieno[3,2-b]pyridin-7-yloxy)phenyl)-3-(5-methylisoxazol-3-yl)urea] | A (greater than or equal to 30% inhibition) | 
13 | COCCNCc1cnc(-c2cc3nccc(Oc4ccc(NC(=O)C5(C(=O)Nc6ccc(F)cc6)CC5)cc4F)c3s2)n1C [163(270), N-(3-fluoro-4-(2-(5-((2-methoxyethylamino)methyl)-1-methyl-1H-imidazol-2-yl)thieno[3,2-b]pyridin-7-yloxy)phenyl)-N-(4-fluorophenyl)cyclopropane-1,1-dicarboxamide] | A (greater than or equal to 30% inhibition) | 
14 | C=CCNC(=O)Nc1ccc(Oc2ccnc3cc(-c4ccc(CNCCOC)cn4)sc23)c(F)c1 [167(274), 1-allyl-3-(3-fluoro-4-(2-(5-((2-methoxyethylamino)methyl)pyridin-2-yl)thieno[3,2-b]pyridin-7-yloxy)phenyl)urea] | A (greater than or equal to 30% inhibition) | 
15 | COCCNCc1ccc(-c2cc3nccc(Oc4ccc(NC(=O)NC5CC5)cc4F)c3s2)nc1 [170(277), 1-Cyclopropyl-3-(3-fluoro-4-(2-(5-((2-methoxyethylamino)methyl)pyridin-2-yl)thieno[3,2-b]pyridin-7-yloxy)phenyl)urea] | A (greater than or equal to 30% inhibition) | 
16 | CCOCCNCc1ccc(-c2cc3nccc(Oc4ccc(NC(=O)Nc5cc(C)ccc5F)cc4F)c3s2)nc1 [173(280), 1-(4-(2-(5-((2-ethoxyethylamino)methyl)pyridin-2-yl)thieno[3,2-b]pyridin-7-yloxy)-3-fluorophenyl)-3-(2-fluoro-5-methylphenyl)urea] | A (greater than or equal to 30% inhibition) | 
17 | NCCCOCCOCCOCCCNCc1ccc(-c2cc3nccc(Oc4ccc(NC(=O)Nc5cc(C(F)(F)F)ccc5F)cc4F)c3s2)nc1 [177(284), 1-(4-(2-(5-(15-Amino-6,9,12-trioxa-2-azapentadecyl)pyridin-2-yl)thieno[3,2-b]pyridin-7-yloxy)-3-fluorophenyl)-3-(2-fluoro-5-(trifluoromethyl)phenyl)urea] | A (greater than or equal to 30% inhibition) | 
18 | COCCNCCn1cnc(-c2cc3nccc(Oc4ccc(NC(=S)NC(=O)Cc5ccc(F)cc5)cc4F)c3s2)c1 [drawing 366] |  | inhibition in vivo at 20 mg/kg ([1]; 288 h, 12 days): < 25%
19 | COCCNCCn1cc(-c2cc3nccc(Oc4ccc(NC(=S)NC(=O)Cc5ccccc5)cc4F)c3s2)cn1 [drawing 367] |  | inhibition in vivo at 20 mg/kg ([1]; 240 h, 10 days): 25 to 50%
20 | COCCNCc1ccc(-c2cc3nccc(Oc4ccc(NC(=O)C5(C(=O)Nc6ccccc6)CC5)cc4F)c3s2)o1 [drawing 368] |  | inhibition in vivo at 20 mg/kg ([2]; 312 h, 13 days): 50 to 75%
21 | CS(=O)(=O)CCNCc1ccc(-c2cc3nccc(Oc4ccc(NC(=O)C5(C(=O)Nc6ccccc6)CC5)cc4F)c3s2)cc1 [drawing 370] |  | inhibition in vivo at 20 mg/kg ([1]; 240 h, 10 days): 50 to 75%
22 | COCCNCc1cnc(-c2cc3nccc(Oc4ccc(NC(=S)NC(=O)Cc5ccccc5)cc4F)c3s2)n1C [drawing 371] |  | inhibition in vivo at 20 mg/kg [4]: 50 to 75%; inhibition in vivo at 20 mg/kg ([2]; 312 h, 13 days): < 25%; Tumor Growth Inhibition (%) [5]: B (tumor growth inhibition of ≧25% but <50%)
23 | COCCNCc1ccc(-c2cc3nccc(Oc4ccc(NC(=O)CC(=O)N(C)c5ccc(F)cc5)cc4F)c3s2)nc1 [drawing 375] |  | inhibition in vivo at 20 mg/kg [4]: 25 to 50%; Tumor Growth Inhibition (%) [5]: A (tumor growth inhibition of less than 25%)
